Reference: patent publication US20250127735A1, “NOVEL COMPOSITION COMPRISING N-ACETYLCYSTEINE FOR OVERCOMING THE ADVERSE EFFECTS OF A CHEMOTHERAPY” (PRONUTRI, priority 2022, published 2025)
“Also recorded” adds a separate entry of the source.

Columns and labels:
[1] = system: Piezo 2, CaVα2δ-1, ARNT2, Mafb and Kv1.4 gene expression; assay: qPCR of ion channel and transcription factor gene expression in mouse DRG primary culture treated with chemotherapy or oxidizing agent; format: cell-based
Experimental: Model: C57Bl6 females, 8 to 15 weeks old (sexually mature young adult mice)
The next morning, place 1.25 μg/ml cisplatin with the other molecules to be tested. […]
The RNA is extracted using Macherey-Nagel's “NucleoSpin RNA” kit.
Reverse transcriptions were performed following the protocol of the “SuperScript III Reverse Transcriptase” kit from Thermo Fisher Scientific, doubling the quantities of RNA and products used in order to obtain a higher concentration of cDNA.
The qPCRs were performed with undiluted cDNA obtained by reverse-transcription using 4.625 μL of cDNA and 5.375 μL of SyberROX PCR Mix (final 10 μL per well).
When the cycle threshold (CT)>35, the gene is considered to be not expressed in the cells analyzed.
To compare our results with and without treatment, we calculated the delta between the target gene and the reference gene (36B4) for each condition (e.g. dCTPIEZO2=CTPIEZO2−CT36B4=27.4−21.6=5.8 (control); 30.6-23.4=7.2 (cisplatin)).
We then calculated the delta delta CT of the target gene for the test condition and the control conditions (e.g. ddCTPIEZO2=dCTPIEZO2 (cisplatin)−[…]=7.2−5.8=1.4).
Finally, we determined the relative expression by calculating: 2^^−ddCT (e.g. for PIEZO2:2^^−ddCT=2^^−1.4=0.40).
The results correspond to the mean±SEM.
Mouse DRGs resulting from primary culture were treated with TBHP at 10 or 30 μM or with 1.25 μg/ml cisplatin (positive control) versus control (CTRL). mRNA expression was measured by qPCR and normalized with the 36B4 reference gene. The results correspond to the mean±SEM.

[2] = system: Arnt2, Piezo 2 and CaVα2δ-1 gene expression; assay: qPCR of reporter genes in primary cultured DRG neurons exposed to cisplatin plus test molecules; format: cell-based, mouse; settings: for effect on Piezo2, CaVα2δ-1 and ARNT2 expression, molecule taken alone: ex vivo primary cultured neurons, 24 h exposure to 1.25 μg/ml cisplatin (FIGS. 5-9)
Experimental: Treatment of the DRGs for 24 hours.
The effect of different molecules was tested on the expression of the same reporter genes, Pizeo 2, CaVα2δ-1 and ARNT2, using qPCR on primary cultured DRG neurons: • NAC • Beta-carotene (provitamin A) • Vitamin B12 • Luteolin (flavone)

DRG neurons = assay: Phase-contrast microscopy of cultured DRG neurons (morphology, neuronal networks); format: cell-based, mouse; settings: for effect on the morphology of DRG neurons (cell or network level): molecule taken alone with cisplatin, micrographs not shown
[3] = system: Piezo2, CaVα2δ-1 and ARNT2 expression; assay: Reporter gene expression in vivo in the animal exposed to a chemotherapy protocol; settings: animal exposed to a chemotherapy protocol (not shown)
[4] = system: tactile hypersensitivity triggered by cisplatin and paclitaxel; assay: Von Frey test of tactile hypersensitivity / chemo-induced neuropathy; format: in vivo, mouse

## N.N.[Cl][Pt][Cl] [cisplatin]
[1]; cells treated with cisplatin compared to control cells normalized to 1, reference gene 36B4
  relative expression of PIEZO2 (2^-ddCT): 0.40
[1]; cisplatin 1.25 μg/ml, 0, 4, 8 and 16 h, normalized with 36B4 (FIG. 3)
  effects on Mafb mRNA expression: not significant

## cobalamin [vitamin B12]
[2]; dose of 25 and 50 μM, 24 h, 1.25 μg/ml cisplatin (FIG. 7)
  effect of vitamin B12 taken alone on gene expression: no effect
[2]
  effect on Piezo2, CaVα2δ-1 and ARNT2 expression, molecule taken alone: does not appear to have a conclusive chemoprotective effect
DRG neurons; vitamin B12 at a dose of 50 μM (not shown)
  toxicity to neuronal morphology: some toxicity

## CC(C)(C)OO [TBHP, tert-butyl hydroperoxide]
[1]; TBHP at 10 or 30 μM (FIG. 4)
  expression of Kv1.4 (negative control): unaffected

## O=c1cc(-c2ccc(O)c(O)c2)oc2cc(O)cc(O)c12 [luteolin, Luteolin]
[2]
  effect on Piezo2, CaVα2δ-1 and ARNT2 expression, molecule taken alone: does not appear to bring any improvement
DRG neurons
  effect on the morphology of DRG neurons (cell or network level): does not appear to bring any improvement

## CC1=C(/C=C/C(C)=C/C=C/C(C)=C/C=C/C=C(C)/C=C/C=C(C)/C=C/C2=C(C)CCCC2(C)C)C(C)(C)CCC1 [beta-carotene, Beta-carotene]
[2]
  effect on Piezo2, CaVα2δ-1 and ARNT2 expression, molecule taken alone: effect only at a 5 μM dose, and not at the lower doses tested (0.3, 1 and 3 μM)
DRG neurons; beta-carotene 5 μM (not shown)
  toxicity to cultured neurons: slightly toxic

## CC(=O)N[C@@H](CS)C(=O)O [NAC, N-acetylcysteine]
[2]
  effect on Piezo2, CaVα2δ-1 and ARNT2 expression, molecule taken alone: allow Piezo2, CaVα2δ-1 and ARNT2 expression levels to rise; also recorded: strongly limits this disruption in expression
DRG neurons
  effect on the morphology of DRG neurons (cell or network level): protective effect
[3]
  Piezo2, CaVα2δ-1 and ARNT2 expression levels in vivo: allow Piezo2, CaVα2δ-1 and ARNT2 expression levels to rise
[4]; mouse model
  chemo-induced neuropathies in a mouse model: suppresses the resulting neuropathies
[4]; triggered by cisplatin and paclitaxel (not shown)
  tactile hypersensitivity in response to mechanical stimuli (Von Frey test): dramatically reduce tactile hypersensitivity
